US12286442B2, “Methods and materials for increasing transcription factor eb polypeptide levels” (University of Pittsburgh—Of the Commonwealth System of …, priority 2019, dated 2025)

Assays:
[1] = system: BEAS-2B cells; assay: Toxicity: compound concentration needed to induce greater than 50 percent of cell loss; type: cell-based, human; details: 18 hours incubation
How it was run: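 BEAS-2B cells stably expressing TFEB-EGFP treated with serial compound dilutions for 18 h, then PFA-fixed, DAPI-stained and imaged. Toxicity scored as the concentration causing >50% cell loss, binned as ≥25 μM, <25 and >1 μM, or ≤1 μM ("+++").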

[2] = system: TFEB; assay: High content screen measuring TFEB nuclear accumulation (TFEB nuclear/cytosol ratio) in BEAS-2B cells stably expressing TFEB-EGFP; type: cell-based, human; details: 18 hours incubation
How it was run: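 BEAS-2B cells stably expressing TFEB-EGFP (~2300–2500 per well) pre-incubated 8 hours, then exposed to serially diluted compounds (DMEM low glucose, 2% FBS) for 18 hours, PFA-fixed and DAPI-stained. Imaged nuclear (DAPI mask) vs cytosolic (expanded mask) TFEB-GFP; activity = minimal concentration raising nuclear/cytosol ratio by 25%.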

## CC(=O)n1ccc2cc(Nc3nc(-c4ccncc4)nc4ccccc34)ccc21 [Compound 70]
[1]
  toxicity (compound concentration needed to induce greater than 50 percent of cell loss): + (cell loss of greater than 50 percent at a concentration that equals or is greater than 25 μM was represented as)
[2]
  efficacy (minimal compound concentration needed to increase TFEB nuclear/cytosol ratio by 25%): +++ (“+++” equals ≤1 μM)

## Fc1cc(Nc2nc(-c3ccncc3)nc3ccccc23)cc2cc[nH]c12 [Compound 71]
[1]
  toxicity (compound concentration needed to induce greater than 50 percent of cell loss): + (cell loss of greater than 50 percent at a concentration that equals or is greater than 25 μM was represented as)
[2]
  efficacy (minimal compound concentration needed to increase TFEB nuclear/cytosol ratio by 25%): +++ (“+++” equals ≤1 μM)

## CCN(c1ccc2[nH]ccc2c1)c1nc(-c2ccncc2)nc2ccccc12 [Compound 72]
[1]
  toxicity (compound concentration needed to induce greater than 50 percent of cell loss): +++ (cell loss of greater than 50 percent at a concentration that equals or is less than 1 μM was represented as “+++.”)
[2]
  efficacy (minimal compound concentration needed to increase TFEB nuclear/cytosol ratio by 25%): +++ (“+++” equals ≤1 μM)

## c1ccc2c(Nc3ccc4[nH]c5c(c4c3)CCCC5)nc(-c3ccncc3)nc2c1 [Compound 73]
[1]
  toxicity (compound concentration needed to induce greater than 50 percent of cell loss): +++ (cell loss of greater than 50 percent at a concentration that equals or is less than 1 μM was represented as “+++.”)
[2]
  efficacy (minimal compound concentration needed to increase TFEB nuclear/cytosol ratio by 25%): +++ (“+++” equals ≤1 μM)

## CC(C)(C)c1cc2cc(Nc3nc(-c4ccncc4)nc4ccccc34)ccc2[nH]1 [Compound 74]
[1]
  toxicity (compound concentration needed to induce greater than 50 percent of cell loss): ++ (cell loss of greater than 50 percent at a concentration less than 25 μM and greater than 1 μM was represented as)
[2]
  efficacy (minimal compound concentration needed to increase TFEB nuclear/cytosol ratio by 25%): +++ (“+++” equals ≤1 μM)

## C1=C(c2nc(Nc3ccc4[nH]ncc4c3)c3ccccc3n2)CCNC1 [Compound 75]
[1]
  toxicity (compound concentration needed to induce greater than 50 percent of cell loss): + (cell loss of greater than 50 percent at a concentration that equals or is greater than 25 μM was represented as)
[2]
  efficacy (minimal compound concentration needed to increase TFEB nuclear/cytosol ratio by 25%): + (“+” equals >25 μM)

## c1ccc2c(Nc3ccc4[nH]ncc4c3)nc(C3CCNCC3)nc2c1 [Compound 76]
[1]
  toxicity (compound concentration needed to induce greater than 50 percent of cell loss): + (cell loss of greater than 50 percent at a concentration that equals or is greater than 25 μM was represented as)
[2]
  efficacy (minimal compound concentration needed to increase TFEB nuclear/cytosol ratio by 25%): + (“+” equals >25 μM)

## c1ccc2c(Nc3ccc4[nH]ncc4c3)nc(-c3cncs3)nc2c1 [Compound 77]
[1]
  toxicity (compound concentration needed to induce greater than 50 percent of cell loss): + (cell loss of greater than 50 percent at a concentration that equals or is greater than 25 μM was represented as)
[2]
  efficacy (minimal compound concentration needed to increase TFEB nuclear/cytosol ratio by 25%): +++ (“+++” equals ≤1 μM)

## c1ccc2c(Nc3ccc4[nH]ccc4c3)nc(-c3cncs3)nc2c1 [Compound 78]
[1]
  toxicity (compound concentration needed to induce greater than 50 percent of cell loss): + (cell loss of greater than 50 percent at a concentration that equals or is greater than 25 μM was represented as)
[2]
  efficacy (minimal compound concentration needed to increase TFEB nuclear/cytosol ratio by 25%): ++ (“++” equals between ≤25 μM and >1 μM)

## Fc1cccc(Nc2nc(-c3cncs3)nc3ccccc23)c1 [Compound 79]
[1]
  toxicity (compound concentration needed to induce greater than 50 percent of cell loss): + (cell loss of greater than 50 percent at a concentration that equals or is greater than 25 μM was represented as)
[2]
  efficacy (minimal compound concentration needed to increase TFEB nuclear/cytosol ratio by 25%): + (“+” equals >25 μM)

## c1cnc2nc(-c3ccncc3)nc(Nc3ccc4[nH]ncc4c3)c2c1 [Compound 80]
[1]
  toxicity (compound concentration needed to induce greater than 50 percent of cell loss): + (cell loss of greater than 50 percent at a concentration that equals or is greater than 25 μM was represented as)
[2]
  efficacy (minimal compound concentration needed to increase TFEB nuclear/cytosol ratio by 25%): ++ (“++” equals between ≤25 μM and >1 μM)

## c1cnc2nc(-c3ccncc3)nc(Nc3ccc4[nH]ccc4c3)c2c1 [Compound 81]
[1]
  toxicity (compound concentration needed to induce greater than 50 percent of cell loss): ++ (cell loss of greater than 50 percent at a concentration less than 25 μM and greater than 1 μM was represented as)
[2]
  efficacy (minimal compound concentration needed to increase TFEB nuclear/cytosol ratio by 25%): +++ (“+++” equals ≤1 μM)

## Fc1cccc(Nc2nc(-c3ccncc3)nc3ncccc23)c1 [Compound 82]
[1]
  toxicity (compound concentration needed to induce greater than 50 percent of cell loss): + (cell loss of greater than 50 percent at a concentration that equals or is greater than 25 μM was represented as)
[2]
  efficacy (minimal compound concentration needed to increase TFEB nuclear/cytosol ratio by 25%): +++ (“+++” equals ≤1 μM)

## c1cnc2c(Nc3ccc4[nH]ccc4c3)nc(-c3ccncc3)nc2c1 [Compound 83]
[1]
  toxicity (compound concentration needed to induce greater than 50 percent of cell loss): + (cell loss of greater than 50 percent at a concentration that equals or is greater than 25 μM was represented as)
[2]
  efficacy (minimal compound concentration needed to increase TFEB nuclear/cytosol ratio by 25%): ++ (“++” equals between ≤25 μM and >1 μM)

## c1cc(-c2nc(Nc3ccc4[nH]ccc4c3)c3cnccc3n2)ccn1 [Compound 84]
[1]
  toxicity (compound concentration needed to induce greater than 50 percent of cell loss): + (cell loss of greater than 50 percent at a concentration that equals or is greater than 25 μM was represented as)
[2]
  efficacy (minimal compound concentration needed to increase TFEB nuclear/cytosol ratio by 25%): +++ (“+++” equals ≤1 μM)

## c1cc(-c2nc(Nc3ccc4[nH]ncc4c3)c3cnccc3n2)ccn1 [Compound 85]
[1]
  toxicity (compound concentration needed to induce greater than 50 percent of cell loss): + (cell loss of greater than 50 percent at a concentration that equals or is greater than 25 μM was represented as)
[2]
  efficacy (minimal compound concentration needed to increase TFEB nuclear/cytosol ratio by 25%): +++ (“+++” equals ≤1 μM)

## Cc1nc2cc(C)c(Nc3nc(-c4ccncc4)nc4ccccc34)cc2s1 [Compound 86]
[1]
  toxicity (compound concentration needed to induce greater than 50 percent of cell loss): +++ (cell loss of greater than 50 percent at a concentration that equals or is less than 1 μM was represented as “+++.”)
[2]
  efficacy (minimal compound concentration needed to increase TFEB nuclear/cytosol ratio by 25%): +++ (“+++” equals ≤1 μM)

## N#Cc1nc2ccc(Nc3nc(-c4ccncc4)nc4ccccc34)cc2s1 [Compound 87]
[1]
  toxicity (compound concentration needed to induce greater than 50 percent of cell loss): + (cell loss of greater than 50 percent at a concentration that equals or is greater than 25 μM was represented as)
[2]
  efficacy (minimal compound concentration needed to increase TFEB nuclear/cytosol ratio by 25%): + (“+” equals >25 μM)

## CC(C)(C)OC(=O)N1CC=C(c2nc(Nc3ccc4[nH]ccc4c3)c3ccccc3n2)CC1 [Compound 88]
[1]
  toxicity (compound concentration needed to induce greater than 50 percent of cell loss): + (cell loss of greater than 50 percent at a concentration that equals or is greater than 25 μM was represented as)
[2]
  efficacy (minimal compound concentration needed to increase TFEB nuclear/cytosol ratio by 25%): + (“+” equals >25 μM)

## c1ccc2c(Nc3ccc4[nH]ncc4c3)nc(-c3cc[nH]c3)nc2c1 [Compound 89]
[1]
  toxicity (compound concentration needed to induce greater than 50 percent of cell loss): ++ (cell loss of greater than 50 percent at a concentration less than 25 μM and greater than 1 μM was represented as)
[2]
  efficacy (minimal compound concentration needed to increase TFEB nuclear/cytosol ratio by 25%): ++ (“++” equals between ≤25 μM and >1 μM)

## CCc1nc2ccc(Nc3nc(-c4ccncc4)nc4ccccc34)cc2s1 [Compound 90]
[1]
  toxicity (compound concentration needed to induce greater than 50 percent of cell loss): + (cell loss of greater than 50 percent at a concentration that equals or is greater than 25 μM was represented as)
[2]
  efficacy (minimal compound concentration needed to increase TFEB nuclear/cytosol ratio by 25%): +++ (“+++” equals ≤1 μM)
